We go through 7 cell lines from the supplement of paper PMC10307832.

Assay in all cases: relative viability (nuclei count vs DMSO), 5 days (fraction); higher = more cells survive
Compound in assay [1]: CNC(=O)c1cc(Oc2ccc(NC(=O)Nc3ccc(Cl)c(C(F)(F)F)c3)cc2)ccn1 [Sorafenib] + CS(=O)(=O)N1CCN(Cc2cc3nc(-c4cccc5[nH]ncc45)nc(N4CCOCC4)c3s2)CC1 [Pictilisib] (partner 1 µM)
Put shortly: (§1)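 A single step with final 0.05% Triton X-100, 1% formaldehyde and 1 ug/ml Hoechst fixed the cells and stained nuclei 5 days after treatment. Lung cancer cell lines in 1536-well plates had been treated by pin tool the day after seeding with one drug alone or a fixed anchor-drug dose plus five library-drug doses (not always all listed) in √10 steps, and nuclei were counted on 4× images. Relative viability is the ratio of nuclei in treated wells to nuclei in vehicle wells, taken as the median of duplicate plates.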

Compound in assay [2]: CNC(=O)c1cc(Oc2ccc(NC(=O)Nc3ccc(Cl)c(C(F)(F)F)c3)cc2)ccn1 [Sorafenib] + CCNC(=O)c1noc(-c2cc(C(C)C)c(O)cc2O)c1-c1ccc(CN2CCOCC2)cc1 [Luminespib] (partner 0.01 µM)
In outline:
as §1

Compound in assay [3]: CNC(=O)c1cc(Oc2ccc(NC(=O)Nc3ccc(Cl)c(C(F)(F)F)c3)cc2)ccn1 [Sorafenib] + N=C(N)NC(=N)NCCc1ccccc1 [Phenformin] (partner 250 µM)
Put shortly:
as §1

Compound in assay [4]: CNC(=O)c1cc(Oc2ccc(NC(=O)Nc3ccc(Cl)c(C(F)(F)F)c3)cc2)ccn1 [Sorafenib] + CC(=O)c1c(C)c2cnc(Nc3ccc(N4CCNCC4)cn3)nc2n(C2CCCC2)c1=O [Palbociclib] (partner 0.5 µM)
In outline: as §1

Compound in assay [5]: CNC(=O)c1cc(Oc2ccc(NC(=O)Nc3ccc(Cl)c(C(F)(F)F)c3)cc2)ccn1 [Sorafenib] + COc1cccc2cc(-c3nc([C@H]4CC[C@H](C(=O)O)CC4)n4ncnc(N)c34)[nH]c12 [OSI-027] (partner 0.5 µM)
In outline: as §1

Take EMC-BAC-2: the relative viability in assay [1] (first compound 0.08 µM) was determined as 0.54; in assay [1] (first compound 0.253 µM) it was 0.6; in assay [1] (first compound 2.53 µM), 0.549; in assay [1] (first compound 8 µM), 0.472; in assay [2] (first compound 0.08 µM) it was 1.21; in assay [2] (first compound 0.253 µM), 1.08. In addition, the relative viability is 1.17 in assay [2] (first compound 2.53 µM); 0.812 in assay [2] (first compound 8 µM); 0.504 in assay [3] (first compound 0.08 µM); 0.464 in assay [3] (first compound 0.253 µM); 0.507 in assay [3] (first compound 2.53 µM); 0.316 in assay [3] (first compound 8 µM). For the same cell line, the relative viability came to 0.519 in assay [4] (first compound 0.08 µM); 0.439 in assay [4] (first compound 0.253 µM); 0.467 in assay [4] (first compound 2.53 µM); 0.477 in assay [4] (first compound 8 µM); 0.341 in assay [5] (first compound 0.08 µM); 0.358 in assay [5] (first compound 0.253 µM). Further, the results for the relative viability in assay [5] (first compound 2.53 µM) and in assay [5] (first compound 8 µM) were 0.391 and 0.358, respectively.

Take 201T: the relative viability in assay [1] (first compound 0.08 µM) came to 0.684; in assay [1] (first compound 0.253 µM) it was 0.669; in assay [1] (first compound 2.53 µM), 0.72; in assay [1] (first compound 8 µM), 0.65; in assay [2] (first compound 0.08 µM), 1.06; in assay [2] (first compound 0.253 µM) it was 1.12. In addition, the relative viability in assay [2] (first compound 8 µM) worked out at 1.04; in assay [3] (first compound 0.253 µM) it was 0.423; in assay [3] (first compound 2.53 µM) it was 0.42; in assay [3] (first compound 8 µM), 0.432; in assay [4] (first compound 0.08 µM), 0.34; in assay [4] (first compound 0.253 µM), 0.343. The relative viability came to 0.36 in assay [4] (first compound 2.53 µM); 0.357 in assay [4] (first compound 8 µM); 0.706 in assay [5] (first compound 0.253 µM); 0.804 in assay [5] (first compound 2.53 µM); 0.671 in assay [5] (first compound 8 µM).

As to NCI-H2085, the relative viability in assay [1] (first compound 0.08 µM) came to 0.541; in assay [1] (first compound 0.253 µM), 0.444; in assay [1] (first compound 2.53 µM), 0.549; in assay [1] (first compound 8 µM), 0.481; in assay [2] (first compound 0.08 µM), 0.483; in assay [2] (first compound 0.253 µM), 0.414. Moreover, the relative viability in assay [2] (first compound 2.53 µM) was 0.424; in assay [2] (first compound 8 µM) it was 0.448; in assay [3] (first compound 0.253 µM), 0.623; in assay [3] (first compound 2.53 µM), 0.756; in assay [3] (first compound 8 µM), 0.48; in assay [4] (first compound 0.08 µM) it was 0.442. Further, the relative viability in assay [4] (first compound 0.253 µM) was 0.491; in assay [4] (first compound 2.53 µM) it was 0.51; in assay [4] (first compound 8 µM), 0.497; in assay [5] (first compound 0.08 µM) it was 0.934; in assay [5] (first compound 0.253 µM), 0.544; in assay [5] (first compound 2.53 µM), 0.704. In addition, in assay [5] (first compound 8 µM), the relative viability stood at 0.396.

Consider NCI-H661, for which the relative viability in assay [1] (first compound 0.08 µM) stood at 0.456; in assay [1] (first compound 0.253 µM) it was 0.397; in assay [1] (first compound 2.53 µM), 0.422; in assay [1] (first compound 8 µM), 0.286; in assay [2] (first compound 0.08 µM), 0.931; in assay [2] (first compound 0.253 µM), 0.928. Moreover, the relative viability in assay [2] (first compound 2.53 µM) stood at 0.822; in assay [2] (first compound 8 µM) it was 0.293; in assay [3] (first compound 0.08 µM) it was 0.279; in assay [3] (first compound 0.253 µM), 0.143; in assay [3] (first compound 2.53 µM), 0.289; in assay [3] (first compound 8 µM), 0.215. Moreover, the relative viability is 0.4 in assay [4] (first compound 0.08 µM); 0.408 in assay [4] (first compound 0.253 µM); 0.385 in assay [4] (first compound 2.53 µM); 0.289 in assay [4] (first compound 8 µM); 0.759 in assay [5] (first compound 0.08 µM); 0.73 in assay [5] (first compound 0.253 µM). Also, the figures for the relative viability in assay [5] (first compound 2.53 µM) and in assay [5] (first compound 8 µM) were 0.655 and 0.483, respectively.

As for EKVX, the relative viability in assay [1] (first compound 0.08 µM) turned out to be 0.529; in assay [1] (first compound 0.253 µM), 0.463; in assay [1] (first compound 2.53 µM), 0.434; in assay [1] (first compound 8 µM), 0.393; in assay [2] (first compound 0.08 µM), 0.963; in assay [2] (first compound 0.253 µM), 0.864. The relative viability in assay [2] (first compound 2.53 µM) stood at 0.808; in assay [2] (first compound 8 µM), 0.854; in assay [3] (first compound 0.08 µM), 0.243; in assay [3] (first compound 0.253 µM), 0.24; in assay [3] (first compound 2.53 µM), 0.24; in assay [3] (first compound 8 µM) it was 0.201. The relative viability in assay [4] (first compound 0.08 µM) is 0.425; in assay [4] (first compound 0.253 µM), 0.43; in assay [4] (first compound 2.53 µM), 0.432; in assay [4] (first compound 8 µM), 0.321; in assay [5] (first compound 0.08 µM), 0.712; in assay [5] (first compound 0.253 µM), 0.74. Also, the relative viability came out at 0.701 in assay [5] (first compound 2.53 µM) and 0.649 in assay [5] (first compound 8 µM).

Regarding LCLC-97TM1, the relative viability in assay [1] (first compound 0.08 µM) was determined as 0.152; in assay [1] (first compound 0.253 µM) it was 0.207; in assay [1] (first compound 2.53 µM), 0.211; in assay [1] (first compound 8 µM), 0.16; in assay [2] (first compound 0.08 µM), 0.97; in assay [2] (first compound 0.253 µM), 0.743. Further, the relative viability worked out at 0.716 in assay [2] (first compound 2.53 µM); 0.56 in assay [2] (first compound 8 µM); 0.413 in assay [3] (first compound 0.08 µM); 0.377 in assay [3] (first compound 0.253 µM); 0.325 in assay [3] (first compound 2.53 µM); 0.356 in assay [3] (first compound 8 µM). For the same cell line, the relative viability in assay [4] (first compound 0.08 µM) stood at 0.251; in assay [4] (first compound 0.253 µM), 0.195; in assay [4] (first compound 2.53 µM), 0.182; in assay [4] (first compound 8 µM) it was 0.184; in assay [5] (first compound 0.08 µM) it was 0.552; in assay [5] (first compound 0.253 µM), 0.515. In addition, the relative viability is 0.336 in assay [5] (first compound 2.53 µM) and 0.272 in assay [5] (first compound 8 µM).

Turning to NCI-H322M, the relative viability came to 0.593 in assay [1] (first compound 0.253 µM); 0.62 in assay [1] (first compound 2.53 µM); 0.695 in assay [1] (first compound 8 µM); 1.03 in assay [2] (first compound 0.08 µM); 1.03 in assay [2] (first compound 0.253 µM); 1.24 in assay [2] (first compound 2.53 µM). The relative viability in assay [2] (first compound 8 µM) worked out at 1.06; in assay [3] (first compound 0.08 µM), 0.813; in assay [3] (first compound 0.253 µM), 0.67; in assay [3] (first compound 2.53 µM), 0.807; in assay [3] (first compound 8 µM) it was 0.795; in assay [4] (first compound 0.08 µM) it was 0.524. Further, the relative viability in assay [4] (first compound 0.253 µM) was 0.589; in assay [4] (first compound 2.53 µM), 0.525; in assay [4] (first compound 8 µM) it was 0.63; in assay [5] (first compound 0.08 µM) it was 0.615; in assay [5] (first compound 0.253 µM), 0.48; in assay [5] (first compound 2.53 µM), 0.542. For the same cell line, the relative viability in assay [5] (first compound 8 µM) stood at 0.587.
